Measured values published in patent US20250163387A1, “HUMAN PITUITARY NEUROENDOCRINE TUMOR ORGANOIDS AND METHODS OF MAKING AND USING THE SAME” (ARIZONA BOARD OF REGENTS OF THE UNIVERSITY OF ARIZONA, A …, priority 2022, published 2025).

How the values were obtained:
[1] = test system: macroadenomas; conditions: patients with macroadenomas; relacorilant for three months; cited from earlier work
[2] = test system: SSTR5; experiment: Differential expression of SSTR5 in iPSC generated pituitary tumor organoids; assay type: cell-based, human; conditions: iPSC organoids (ctrl, USP48MI, USP48MV, USP8); 500 nM; vs vehicle
[3] = test system: SSTR2; experiment: Differential expression of SSTR2 in iPSC generated pituitary tumor organoids; assay type: cell-based, human; conditions: iPSC organoids (ctrl, USP48MI, USP48MV, USP8); 500 nM; vs vehicle
[4] = test system: iPSC^USP48MV organoids; experiment: Proliferation by EdU uptake; assay type: cell-based, human; conditions: drug alone, 500 nM
Experimental: (§1) Organoids were immunostained using published protocols by our laboratory. Proliferation was measured by using 5-ethynyl-2'-deoxyuridine (EdU) incorporation according to the Manufacturer's protocol (Click-IT EdU Alexa Fluor 555 Imaging Kit, Thermo Fisher Scientific C10338). Costaining was performed by blocking fixed organoids with 2% donkey serum (Jackson Immuno Research, #017-000-121) diluted in 0.01% PBST for 1 hr. at room temperature. Organoids were then incubated overnight at 4° C. with primary antibodies followed by secondary antibodies and Hoechst (Thermo Fisher Scientific H1399, 1:1000 in 0.01% PBST) for 1 hr at room temperature. Human specific primary antibodies used included: rabbit anti-ACTH (Thermo Fisher Scientific 701293, 1:250), rabbit anti-Synaptophysin (Thermo Fisher Scientific PA5-27286, 1:100), […] (Thermo Fisher Scientific PA5-98650, 1:50), rabbit anti-LH (Thermo Fisher Scientific PA5-102674, 1:100), mouse anti-FSH (Thermo Fisher Scientific MIF2709, 1:100), mouse anti-PRL (Thermo Fisher Scientific CF500720, 1:100), Alexa Flour conjugated GH (NB500-364AF647, 1:100) and mouse anti-CAM5.2 (SIGMA […]-95, 1:250). The secondary antibodies used included Alexa Fluor 488 Donkey Anti Rabbit IgG (H+L) (Thermo Fisher Scientific A21206, 1:100) or Alexa Fluor 647 Donkey Anti Mouse IgG (H+L) (Thermo Fisher Scientific A31571, 1:100). Organoids were visualized and images acquired by confocal microscopy using the Nikon CrestV2 Spinning Disk. Fluorescence intensity and percentage of EdU positive cells of total cells, were calculated using Nikon Elements Software (Version 5.21.05).

[5] = test system: iPSC^ctrl organoids; experiment: Proliferation by EdU uptake; assay type: cell-based, human; conditions: drug alone, 500 nM
Experimental: as §1

[6] = test system: hPITO37; experiment: Spectral flow cytometry (SSTR2, SSTR5, ACTH, zombie); assay type: cell-based, human; conditions: Rela 382 nM, Mife 2.85 nM
Experimental: (§2) The multicolor flow cytometry panel was designed using the Cytek®Full Spectrum Viewer online tool to calculate the similarity index. The organoids were harvested in cold SFDM media and centrifuged at 400×g for 5 minutes. Supernatant was discarded and organoids were dissociated to single cells using Accutase® (Thermo Fisher Scientific 00-4555-56). The enzymatic reaction was stopped using prewarmed DPBS and cells were then centrifuged at 400×g for 5 minutes and incubated with fluorochrome-conjugated/unconjugated primary surface or cytoplasmic antibodies at 4° C. for 30 minutes. Cells were then washed with Cell Staining Buffer (BioLegend #420-201) and incubated with secondary antibodies at 4° C. for 30 minutes. Cells were fixed using Cytofix/Cytoperm™ Fixation/Permeabilization Solution (BD Biosciences #554714) at 4° C. for 20 minutes, followed by washing with Fixation/Permeabilization wash buffer. Cells were then labeled with fluorochrome-conjugated/unconjugated intracellular primary antibodies at 4° C. for 30 minutes, washed and incubated with secondary antibodies at 4° C. for 30 minutes. Cells resuspended in cell staining buffer and fluorescence measured using the Cytek Aurora 5 Laser Spectral Flow Cytometer. An unstained cell sample was fixed and used as reference control. UltraComp eBeads™, Compensation Beads (Thermo Fisher Scientific #01-2222-42) were stained with the individual antibodies and used as single stain control for compensation and gating. Data was acquired using the Cytek™ Aurora and analyzed using Cytobank software (Beckman Coulter, Indianapolis, IN).

[7] = test system: iPSC^USP48MV organoids; experiment: as above; assay type: cell-based, human; conditions: Rela 500 nM, Mife 500 nM
Experimental: as §2

[8] = test system: pancreatic and ovarian cancer cell lines; conditions: cited from earlier work
[9] = test system: FKBP5; experiment: GR modulation: GR target gene FKBP5 expression in PitNET organoids; assay type: cell-based, human
[10] = test system: iPSC^USP48MV organoids; experiment: Nuclear irregularity index (NII) morphometric analysis; assay type: cell-based, human; conditions: 500 nM
Experimental: (§3) Nuclear Morphometric Analysis (NMA) using treated organoids was performed based on a published protocol that measures cell viability based on the changes in nuclear morphology of the cells using nuclear stain Hoechst or DAPI [30]. Images of organoid nuclei were analyzed using the ImageJ Nuclear Irregularity Index (NII) plugin for key parameters that included cell area, radius ratio, area box, aspect, and roundness. Using the published spreadsheet template, the NII of each cell was calculated with the following formula: NII=Aspect−Area Box+Radius Ratio+Roundness. The area vs NII of vehicle-treated cells were plotted as a scatter plot using the template and considered as the normal cell nuclei. The same plots were generated for each condition, and the NII and area of treated cells were compared to the normal nuclei, and classified as one of the following NMA populations: Normal (N; similar area and NII), Mitotic (S; similar area, slightly higher NII), Irregular (I; similar area, high NII), Small Regular (SR; apoptotic, low area and NII), Senescent (LR; high area, low NII), Small Irregular (SI; low area, high NII), or Large Irregular (LI; high area, high NII). […] The percentage of cells in each NII classification category were calculated and plotted as a histogram using GraphPad Prism.

[11] = test system: iPSC^ctrl organoids; experiment: as above; assay type: cell-based, human; conditions: 500 nM
Experimental: as §3

## Cn1cc(S(=O)(=O)N2CCC3=Cc4c(cnn4-c4ccc(F)cc4)C[C@]3(C(=O)c3cc(C(F)(F)F)ccn3)C2)cn1 [relacorilant]
[1]
  tumor (macroadenoma) regression: tumor regression in two patients
[2]
  expression of SSTR5: significant induction
[3]
  expression of SSTR2: significant induction
[4]
  cell proliferation (EdU uptake): did not induce organoid proliferation
[5]
  cell proliferation (EdU uptake): did not induce organoid proliferation
[6]; Pas 837.5 nM
  cell death (Zombie positive cells): significant increase
[6]; vs Veh
  percentage of SSTR2 positive cells: significant increase
  percentage of SSTR5 positive cells: significant increase
[7]; Pas 100 nM
  ACTH positive cells: did not significantly increase
  cell death (Zombie positive cells): significant increase
[7]; vs Veh
  percentage of SSTR2 positive cells: significant increase
  percentage of SSTR5 positive cells: significant increase
[8]
  apoptosis in vitro: induces apoptosis
[9]
  differential expression of FKBP5: significantly reduced
[10]
  apoptotic cells by nuclear morphology (NII): increased apoptotic cells
[11]
  apoptotic cells by nuclear morphology (NII): not observed
